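All cell lines were grown in 96-well plates and treated with compound for 48 hours. GI50 is the concentration that inhibits growth by half. TGI: concentration producing complete growth inhibition.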
Assays:
Test in all cases: NCI anticancer screen, dose series, 48 h
786-0 renal = test system: 786-0 renal
A549 NSCLC = test system: A549 NSCLC
ACHN renal = test system: ACHN renal
CAKI-1 renal = test system: CAKI-1 renal
CCRF-CEM leukemia = test system: CCRF-CEM leukemia
COLO 205 colon = test system: COLO 205 colon
DLD-1 colon = test system: DLD-1 colon
DMS 114 small cell lung = test system: DMS 114 small cell lung
DMS 273 small cell lung = test system: DMS 273 small cell lung
EKVX NSCLC = test system: EKVX NSCLC
HCC-2998 colon = test system: HCC-2998 colon
HCT-116 colon = test system: HCT-116 colon
HCT-15 colon = test system: HCT-15 colon
HL-60(TB) leukemia = test system: HL-60(TB) leukemia
HOP-18 NSCLC = test system: HOP-18 NSCLC
HOP-62 NSCLC = test system: HOP-62 NSCLC
HOP-92 NSCLC = test system: HOP-92 NSCLC
HT29 colon = test system: HT29 colon
IGROV1 ovarian = test system: IGROV1 ovarian
KM12 colon = test system: KM12 colon
KM20L2 colon = test system: KM20L2 colon
LOX IMVI melanoma = test system: LOX IMVI melanoma
LXFL 529 NSCLC = test system: LXFL 529 NSCLC
M14 melanoma = test system: M14 melanoma
M19-MEL melanoma = test system: M19-MEL melanoma
MALME-3M melanoma = test system: MALME-3M melanoma
MOLT-4 leukemia = test system: MOLT-4 leukemia
NCI-H226 lung = test system: NCI-H226 lung
NCI-H23 lung = test system: NCI-H23 lung
NCI-H460 lung = test system: NCI-H460 lung
NCI-H522 lung = test system: NCI-H522 lung
OVCAR-3 ovarian = test system: OVCAR-3 ovarian
OVCAR-4 ovarian = test system: OVCAR-4 ovarian
OVCAR-5 ovarian = test system: OVCAR-5 ovarian
OVCAR-8 ovarian = test system: OVCAR-8 ovarian
RPMI-8226 leukemia = test system: RPMI-8226 leukemia
RXF 393 renal = test system: RXF 393 renal
SF-268 CNS = test system: SF-268 CNS
SF-295 CNS = test system: SF-295 CNS
SF-539 CNS = test system: SF-539 CNS
SK-MEL-2 melanoma = test system: SK-MEL-2 melanoma
SK-MEL-28 melanoma = test system: SK-MEL-28 melanoma
SK-MEL-5 melanoma = test system: SK-MEL-5 melanoma
SK-OV-3 ovarian = test system: SK-OV-3 ovarian
SN12C renal = test system: SN12C renal
SNB-19 CNS = test system: SNB-19 CNS
SNB-75 CNS = test system: SNB-75 CNS
SNB-78 CNS = test system: SNB-78 CNS
SR leukemia = test system: SR leukemia
TK-10 renal = test system: TK-10 renal
U251 CNS = test system: U251 CNS
UACC-257 melanoma = test system: UACC-257 melanoma
UACC-62 melanoma = test system: UACC-62 melanoma
UO-31 renal = test system: UO-31 renal
A498 renal = test system: A498 renal
K-562 leukemia = test system: K-562 leukemia
SW-620 colon = test system: SW-620 colon
XF 498 CNS = test system: XF 498 CNS

## FC(F)(F)c1nnn[n-]1.[Au+].c1ccc([PH+](c2ccccc2)c2ccccc2)cc1
786-0 renal
  GI50: 1.84 µM
  TGI: 3.55 µM
A549 NSCLC
  GI50: 19.3 µM
  TGI: 62.3 µM
ACHN renal
  GI50: 4.63 µM
  TGI: 9.84 µM
CAKI-1 renal
  GI50: 3.6 µM
  TGI: 14.2 µM
CCRF-CEM leukemia
  GI50: 0.449 µM
  TGI: 2.91 µM
COLO 205 colon
  GI50: 2.62 µM
  TGI: 6.94 µM
DLD-1 colon
  GI50: 1.95 µM
  TGI: 5.04 µM
DMS 114 small cell lung
  GI50: 1.95 µM
  TGI: 15 µM
DMS 273 small cell lung
  GI50: 5.62 µM
  TGI: 54.7 µM
EKVX NSCLC
  GI50: 5.65 µM
  TGI: 10.4 µM
HCC-2998 colon
  GI50: 10.3 µM
  TGI: 22.3 µM
HCT-116 colon
  GI50: 12.4 µM
  TGI: 24.9 µM
HCT-15 colon
  GI50: 2.19 µM
  TGI: 6.92 µM
HL-60(TB) leukemia
  GI50: 0.161 µM
  TGI: 0.42 µM
HOP-18 NSCLC
  GI50: 8.67 µM
  TGI: 20.5 µM
HOP-62 NSCLC
  GI50: 19.7 µM
  TGI: 34.2 µM
HOP-92 NSCLC
  GI50: 2.38 µM
  TGI: 4.59 µM
HT29 colon
  GI50: 4.25 µM
  TGI: 13.2 µM
IGROV1 ovarian
  GI50: 2.69 µM
  TGI: 13.2 µM
KM12 colon
  GI50: 13.2 µM
  TGI: 42.5 µM
KM20L2 colon
  GI50: 6.74 µM
  TGI: 16.6 µM
LOX IMVI melanoma
  GI50: 2.26 µM
  TGI: 7.64 µM
LXFL 529 NSCLC
  GI50: 1.48 µM
  TGI: 2.82 µM
M14 melanoma
  GI50: 1.78 µM
  TGI: 4.37 µM
M19-MEL melanoma
  GI50: 2.74 µM
  TGI: 15.7 µM
MALME-3M melanoma
  GI50: 1.58 µM
  TGI: 3.35 µM
MOLT-4 leukemia
  GI50: 1.52 µM
  TGI: 4.09 µM
NCI-H226 lung
  GI50: 10.9 µM
  TGI: 26.3 µM
NCI-H23 lung
  GI50: 2.79 µM
  TGI: 9.11 µM
NCI-H460 lung
  GI50: 16.6 µM
  TGI: 50.4 µM
NCI-H522 lung
  GI50: 1.33 µM
  TGI: 2.81 µM
OVCAR-3 ovarian
  GI50: 2.89 µM
  TGI: 7.49 µM
OVCAR-4 ovarian
  GI50: 2.09 µM
  TGI: 6.67 µM
OVCAR-5 ovarian
  GI50: 16.1 µM
  TGI: 30 µM
OVCAR-8 ovarian
  GI50: 2.77 µM
  TGI: 9.18 µM
RPMI-8226 leukemia
  GI50: 1.41 µM
  TGI: 4.63 µM
RXF 393 renal
  GI50: 1.52 µM
  TGI: 3.11 µM
SF-268 CNS
  GI50: 4.2 µM
  TGI: 13.1 µM
SF-295 CNS
  GI50: 11 µM
  TGI: 41.3 µM
SF-539 CNS
  GI50: 5.18 µM
  TGI: 19.4 µM
SK-MEL-2 melanoma
  GI50: 3.09 µM
  TGI: 10.8 µM
SK-MEL-28 melanoma
  GI50: 2.49 µM
  TGI: 7.35 µM
SK-MEL-5 melanoma
  GI50: 2 µM
  TGI: 7.15 µM
SK-OV-3 ovarian
  GI50: 15.6 µM
  TGI: 29 µM
SN12C renal
  GI50: 6.34 µM
  TGI: 16.4 µM
SNB-19 CNS
  GI50: 4.07 µM
  TGI: 13.6 µM
SNB-75 CNS
  GI50: 8.64 µM
  TGI: 22.1 µM
SNB-78 CNS
  GI50: 6.66 µM
  TGI: > 62.7 µM
SR leukemia
  GI50: 1.3 µM
  TGI: 3.65 µM
TK-10 renal
  GI50: 3.51 µM
  TGI: 9.27 µM
U251 CNS
  GI50: 3.04 µM
  TGI: 11.1 µM
UACC-257 melanoma
  GI50: 1.82 µM
  TGI: 7.43 µM
UACC-62 melanoma
  GI50: 2.17 µM
  TGI: 10.7 µM
UO-31 renal
  GI50: 6.84 µM
  TGI: 16.7 µM

## O=C(CC1=Nc2nnc(CCCCCCCc3nnc4n3C(=O)C(CC(=O)c3ccccc3)=N4)n2C1=O)c1ccccc1
786-0 renal
  TGI: > 100 µM
A498 renal
  TGI: > 100 µM
A549 NSCLC
  TGI: > 100 µM
ACHN renal
  TGI: > 100 µM
CAKI-1 renal
  TGI: > 100 µM
CCRF-CEM leukemia
  TGI: > 100 µM
COLO 205 colon
  TGI: > 100 µM
DLD-1 colon
  TGI: > 100 µM
DMS 114 small cell lung
  TGI: > 100 µM
EKVX NSCLC
  TGI: > 100 µM
HCC-2998 colon
  TGI: > 100 µM
HCT-116 colon
  TGI: > 100 µM
HCT-15 colon
  TGI: > 100 µM
HL-60(TB) leukemia
  TGI: > 100 µM
HOP-18 NSCLC
  TGI: > 100 µM
HOP-62 NSCLC
  TGI: > 100 µM
HOP-92 NSCLC
  TGI: > 100 µM
HT29 colon
  TGI: > 100 µM
IGROV1 ovarian
  TGI: > 100 µM
K-562 leukemia
  TGI: > 100 µM
KM12 colon
  TGI: > 100 µM
KM20L2 colon
  TGI: > 100 µM
LOX IMVI melanoma
  TGI: > 100 µM
LXFL 529 NSCLC
  TGI: > 100 µM
M14 melanoma
  TGI: > 100 µM
M19-MEL melanoma
  TGI: > 100 µM
MALME-3M melanoma
  TGI: > 100 µM
MOLT-4 leukemia
  TGI: > 100 µM
NCI-H226 lung
  TGI: > 100 µM
NCI-H23 lung
  TGI: > 100 µM
NCI-H460 lung
  TGI: > 100 µM
NCI-H522 lung
  TGI: > 100 µM
OVCAR-3 ovarian
  TGI: > 100 µM
OVCAR-5 ovarian
  TGI: > 100 µM
OVCAR-8 ovarian
  TGI: > 100 µM
RPMI-8226 leukemia
  TGI: > 100 µM
RXF 393 renal
  TGI: > 100 µM
SF-268 CNS
  TGI: > 100 µM
SF-295 CNS
  TGI: > 100 µM
SF-539 CNS
  TGI: > 100 µM
SK-MEL-28 melanoma
  TGI: > 100 µM
SK-MEL-5 melanoma
  TGI: > 100 µM
SK-OV-3 ovarian
  TGI: > 100 µM
SN12C renal
  TGI: > 100 µM
SNB-19 CNS
  TGI: > 100 µM
SNB-75 CNS
  TGI: > 100 µM
SR leukemia
  TGI: > 100 µM
SW-620 colon
  TGI: > 100 µM
TK-10 renal
  TGI: > 100 µM
U251 CNS
  TGI: > 100 µM
UACC-257 melanoma
  TGI: > 100 µM
UACC-62 melanoma
  TGI: > 100 µM
UO-31 renal
  TGI: > 100 µM
XF 498 CNS
  TGI: > 100 µM

Source: PubChem BioAssay (NCI)
